Laboratory results: patent US7714014B2, “Targeting GLI proteins in human cancer by small molecules” (The Regents of the University of California, priority 2005, dated 2010)
“Also recorded” adds a separate entry of the source.

What was measured:
[1] = tested on: human ovarian cancer cell line AZ23247; assay: Cell survival assay (crystal violet); assay type: cell-based; details: AZ23247, 30 μM and 50 μM
Experimental: (§1) Typically, the small molecule compounds of the present invention were dissolved in DMSO at a concentration of 30 mM. The small molecule compounds were then tested under cell culture conditions at different concentrations ranging from 0, 10, 30, 50, to 100 uM. To determine cell survival after treatment, the cells were incubated with the small molecule compounds in 6-well plates for about 3 days. After removal of the cell culture medium, 1-ml of 0.5% crystal violet solution (prepared in 20% ethanol and 20% methanol) was added to stain the cells for 5 min. Then the crystal violet solution was rinsed clean with tap water. Cell survival was estimated based on the density of crystal stained plates.
The cell-based cytotoxicity assay described herein was used to determine the effect of small molecule compounds FN1-5 and FN1-8 in the human ovarian cancer cell line AZ23247. Viability of AZ23247 cells was analyzed after treatment with 10, 30 and 50 μM FN1-5 or FN1-8.

H838 (NSCLC) = assay: Apoptosis analysis (Annexin V FITC, flow cytometry); assay type: cell-based, human; details: 3 days
Experimental: (§2) Apoptosis was analyzed by using an Annexin V FITC Apoptosis Detection Kit (Biosource, Camarillo, Calif.), according to the manufacturer's protocol. After treatment with different small molecule compounds at various concentrations for about 3 days, cells were harvested by trypsinization, stained and immediately analyzed by flow cytometry (FACScan; Decton Dickinson, Franklin Lake, N.J.). Early apoptotic cells with exposed phosphatidylserine but intact cell membranes will bind to Annexin V-FITC, but not propidium iodide (PI). Cells in necrotic or late apoptotic stages will be labeled with both Annexin V-FITC and PI. “% apoptotic cells” or “% apoptosis” refers to the combined early and late apoptotic cells.

H460 (NSCLC) = assay: as above; assay type: cell-based, human; details: 3 days
Experimental: as §2

CaCO2 (colon cancer) = assay: as above; assay type: cell-based, human; details: about 3 days
Experimental: as §2

[2] = tested on: human nasopharyngeal cancer cell lines HNE1 and HONE1; assay: Cell survival assay (crystal violet); assay type: cell-based; details: for cell killing: 50 μM
Experimental: as §1
The cell-based cytotoxicity assay described herein was used to determine the effect of small molecule compounds FN1-5 and FN1-8 in the human nasopharyngeal cancer cell lines HNE1 and HONE1. Viability of these cells was analyzed after treatment with 10, 30 and 50 μM FN1-5 or FN1-8.

211H (mesothelioma) = assay: Apoptosis analysis (Annexin V FITC, flow cytometry); assay type: cell-based, human; details: 3 days
Experimental: as §2
Flow cytometry was used to examine apoptosis in the mesothelioma cell line 211H after treatment of cells with small molecule compounds FN1-5 and FN1-8.

[3] = tested on: Dvl-3, cytosolic β-catenin, Survivin in NSCLC cells H460, A549, and H838; assay: Western blot of canonical Wnt signaling components; assay type: cell-based, human; details: 30 μM, 2 days; for Dvl-3 and cytosolic beta-catenin levels (Western blot): H460, A549, H838
Experimental: (§3) Whole proteins from cell cultures with or without treatments with small molecule compounds (30 μM for 2-3 days) were prepared using standard protocols (Pierce Biotechnology, Rockford, Ill.). Protein concentrations were measured using Bio-Rad Protein Assay reagent. Whole cell lysate protein (5-20 ug) were boiled for 5 min and separated by 10-20% SDS-PAGE. Proteins were transferred to an Immobilon-P membrane (Millipore Corp., Bedford, Mass.) using semi-dry transfer cell (Bio-Rad; Benicia, Calif.). The membranes were blocked with 5% nonfat milk powder and 0.1% Tween 20 in Tris-buffer saline overnight at 4° C. and then incubated with primary antibody for 1 h at room temperature. Membranes were washed in 5% nonfat milk powder and 0.1% Tween 20 in Tris-buffer saline for three 10-min periods. Horseradish peroxidase-conjugated goat anti-rabbit or donkey anti-mouse antibodies were used as secondary antibodies. Proteins were visualized with chemiluminescence luminol reagents (Santa Cruz Bio-technology). Anti-Dvl-3, and anti-Survivin, antibodies were from Santa Cruz Biotechnology (Santa Cruz, Calif.). Anti-Caspase3 antibody was from Oncogene (Cambridge, Mass.). Anti-β-Actin antibody was from Sigrna-Aldrich Corp. (St. Louis, Mo.). Anti-β-catenin antibody was from Transduction Laboratories (Lexington, Ky.). Anti-Cytochrome c antibody was from BD Biosciences (San Diego, Calif.). For detecting alteration of β-catenin cytosolic extracts were prepared and examined as described previously in the publications from our lab.

[4] = tested on: Dvl-3, cytosolic β-catenin, Survivin in colon cancer cells SW480, HT29, and CaCO2; assay: Western blot of canonical Wnt signaling components; assay type: cell-based, human; details: 30 μM, 2 days; for Dvl-3 and cytosolic beta-catenin levels (Western blot): SW480, HT29, CaCO2
Experimental: as §3

[5] = tested on: primary cultured human mesothelioma cells; assay: Cell survival assay (crystal violet); assay type: cell-based; details: for cell killing effect: 50 and 100 μM, 3 days
Experimental: Fresh cancer tissue and adjacent normal tissue from patients undergoing curative primary resection of their tumors were collected at the time of surgery (IRB approval H8714-15319-040), and immediately snap-frozen in liquid nitrogen. These tissue samples were kept at −170° C. in a liquid nitrogen freezer until further use. Primary tissue cultures were prepared as follows: Fresh cancer tissue was obtained with consent from patients undergoing resection, cut into small pieces (1-2 mm in diameter), and then digested with Collagenase A (Roche Applied Science, Indianapolis, Ind.) at room temperature for 2 hours according to manufacture's protocol. Single cells from the digestion were spun down and the cell pellets were washed twice using RPMI 1640 supplemented with 10% fetal bovine serum, penicillin (100 IU/ml) and streptomycin (100 μg/ml). Then, the cells were resuspended in the same medium and cultured in 6-well plates at 37° C. in a humid incubator with 5% CO2 until they were ready for further treatments.
as §1
Next, the effect of different small molecule compounds on primary cultured human mesothelioma cells freshly made from tissue samples was examined. The primary cultures were plated in 6-well plates as described herein and incubated with 50 and 100 μM of each compound (FN1-5, FN1-7, FN1-8, and FN3-5; stocks were dissolved in DMSO at 30 mM) for 3 days. […] (FIG. 8).

Row | SMILES | cell killing [1] | % of apoptotic cells (H838 (NSCLC); H838, 10 μM) [%] | % of apoptotic cells (H838 (NSCLC); H838, 30 μM) [%] | % of apoptotic cells (H838 (NSCLC); H838, 50 μM) [%] | % of apoptotic cells (H460 (NSCLC); H460, 30 μM) [%] | % of apoptotic cells (H460 (NSCLC); H460, 50 μM) [%] | % of apoptotic cells (CaCO2 (colon cancer); CaCO2, 30 μM) [%] | % of apoptotic cells (CaCO2 (colon cancer); CaCO2, 50 μM) [%] | cell killing potency compared with FN1-5 [2] | cell killing [2] | % of apoptotic cells (211H (mesothelioma); 10 μM) [%] | % of apoptotic cells (211H (mesothelioma); 30 μM) [%] | Survivin level (Western blot) [3] | Dvl-3 and cytosolic beta-catenin levels (Western blot) [3] | Survivin level (Western blot) [4] | Dvl-3 and cytosolic β-catenin levels (Western blot) ([4]; HT29 cells only) | Dvl-3 and cytosolic beta-catenin levels (Western blot) [4] | cell killing effect [5] | cell killing potency compared with FN1-5 ([5]; same dose) | % of apoptotic cells (CaCO2 (colon cancer); CaCO2, 10 μM) [%]
1 | O=C(NCCc1ccc(O)cc1)C1C(c2ccccc2)=NN(c2ccccc2)C1c1ccccc1 (stereo not drawn) [FN1-8, N-(2-(4-Hydroxyphenyl)ethyl)-1,3,5-triphenyl-4,5-dihydro-pyrazole-4-carboxyamide] | dramatic cell killing | 10.6 | 18.3 | 82.3 | 12.1 | 75.2 | 19.9 | 39.4 | more potent | dramatic cell killing | 5.6 | 30.7 | down-regulated | dramatic down-regulation; also recorded: suppress canonical Wnt signaling | down-regulated | no down-regulation | dramatic down-regulation; also recorded: suppress canonical Wnt signaling | Dramatic cell killing effect | more potent than FN1-5 | 
2 | O=C(NCCCCCO)C1C(c2ccccc2)=NN(c2ccccc2)C1c1ccccc1 (stereo not drawn) [FN1-5, N-(5-Hydroxypentyl)-1,3,5-triphenyl-4,5-dihydro-pyrazole-4-carboxyamide] | dramatic cell killing |  | 14.2 | 20.0 | 11.9 | 15.7 | 19.8 | 30.3 |  | dramatic cell killing | 7.7 | 37.5 |  | suppress canonical Wnt signaling |  |  | suppress canonical Wnt signaling | Dramatic cell killing effect |  | 8.2
